From article PMC8953660, “Selective measurement of NAPE-PLD activity via a PLA1/2-resistant fluorogenic N-acyl-phosphatidylethanolamine analog” (Journal of Lipid Research, 2021) come the findings set out here.

The assay concerns the target T1, recombinant mouse Nape-pld (NAPE-PLD) (Mus musculus, UniProt Q8BH82).
T1 construct: gene Napepld
Particulars: 50 mM Tris-HCl pH 8.0, N-octyl-β-D-glucoside, 37 °C, allosteric sigmoidal fit.

Read-outs that look alike come from different tables or passages of the source.

T1 sequence (Q8BH82 whole entry): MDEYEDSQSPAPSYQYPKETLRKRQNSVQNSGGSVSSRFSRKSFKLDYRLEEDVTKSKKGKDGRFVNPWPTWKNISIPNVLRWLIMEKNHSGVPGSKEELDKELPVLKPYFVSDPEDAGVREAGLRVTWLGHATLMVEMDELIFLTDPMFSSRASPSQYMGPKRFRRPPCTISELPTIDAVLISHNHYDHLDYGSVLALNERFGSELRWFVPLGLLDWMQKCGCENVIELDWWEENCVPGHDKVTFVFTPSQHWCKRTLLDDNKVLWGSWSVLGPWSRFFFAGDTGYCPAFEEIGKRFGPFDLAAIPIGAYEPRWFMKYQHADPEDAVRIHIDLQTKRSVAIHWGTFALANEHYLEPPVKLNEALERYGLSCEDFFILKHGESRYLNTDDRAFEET

In the case of `CCCCCCO[C@H](COC(=O)CCCCC1=[N+]2C(=Cc3c(C)cc(C)n3[B-]2(F)F)C=C1)COP(=O)(O)OCCNC(=O)CCCCCNc1ccc([N+](=O)[O-])cc1[N+](=O)[O-]` [PED-A1], the Km (usually the concentration of substrate that gives half-maximal velocity) was 4 µM. As to `CCCCCCO[C@@H](COP(=O)(O)OCCNC(=O)CCCCCNc1ccc([N+](=O)[O-])cc1[N+](=O)[O-])CN(C)C(=O)CCCCc1ccc2n1[B-](F)(F)[N+]1=C(C)C=C(C)C1=C2` [flame-NAPE], the Km (authors note evidence of an inadequate regression model for flame-NAPE) turned out to be 9.2 µM.
